From US20090312316A1, “NOVEL COMPOUNDS” (priority 2006, published 2009)

Assays:
[1] = test system: panel of 12 human tumour cell lines; assay: monolayer proliferation assay (modified propidium iodide assay) in a panel of 12 human tumour cell lines; type: cell-based; details: for Mean % T/C at 1 μM / Mean % T/C at 10 μM: mean growth across 12 cell-line panel, treated/control x 100, 4 days exposure; for Mean percentage Inhibition of cancer cell lines at 1 uM: 100 minus mean %T/C at 1 uM of Table III
Description: In vitro evaluation of compounds for anticancer activity in a panel of 12 human tumour cell lines in a monolayer proliferation assay was carried out at the Oncotest Testing Facility, Institute for Experimental Oncology, Oncotest GmbH, Freiburg.
The Oncotest cell lines were established from human tumor xenografts as described by Roth et al., (1999). The origin of the donor xenografts was described by Fiebig et al., (1999). Other cell lines were either obtained from the NCI (H460, SF-268, OVCAR-3, DU145, MDA-MB-231, MDA-MB-468) or purchased from DSMZ, Braunschweig, Germany (LNCAP).
All cell lines, unless otherwise specified, were grown at 37° C. in a humidified atmosphere (95% air, 5% CO2) in a ‘ready-mix’ medium containing RPMI 1640 medium, 10% fetal calf serum, and 0.1 mg/mL gentamicin (PAA, Cölbe, Germany).
A modified propidium iodide assay was used to assess the effects of the test compound(s) on the growth of human tumour cell lines (Dengler et al., (1995)).
Briefly, cells were harvested from exponential phase cultures by trypsinization, counted and plated in 96 well flat-bottomed microtitre plates at a cell density dependent on the cell line (5-10.000 viable cells/well). After 24 h recovery to allow the cells to resume exponential growth, 0.010 mL of culture medium (6 control wells per plate) or culture medium containing macbecin were added to the wells. Each concentration was plated in triplicate. Compounds were applied in two concentrations (0.001 mM and 0.01 mM). Following 4 days of continuous exposure, cell culture medium with or without test compound was replaced by 0.2 mL of an aqueous propidium iodide (PI) solution (7 mg/L). To measure the proportion of living cells, cells were permeabilized by freezing the plates. After thawing the plates, fluorescence was measured using the Cytofluor 4000 microplate reader (excitation 530 nm, emission 620 nm), giving a direct relationship to the total number of viable cells.
The mean growth inhibition across the 12 cell-line panel was expressed as treated/control×100 (% T/C).
In vitro evaluation of the test compounds for anticancer activity in a panel of human tumour cell lines in a monolayer proliferation assay was carried out as described in the general methods using a modified propidium iodide assay. This screen may be used as a model for the toxic effect of compounds in inhibiting general cell growth.

CAM vasculature = assay: Chick chorioallantoic membrane (CAM) assay of anti-angiogenic activity; type: in vivo; details: for Ratio of inhibition of CAM vasculature at 25 ng/CAM to in vitro cancer cell inhibition at 1 uM: 25 ng/CAM versus 1 uM in cancer cell panel; for Mean blood vessel density score: angiogenesis score up to 32 (highest density), 0 = no angiogenesis, mean of ten experiments; for anti-angiogenic therapeutic index (ratio of anti-angiogenesis to general cell inhibition), in words: as compared to 1 and 6
Description: Fresh fertile eggs were be incubated for 3 days in a standard egg incubator at 37° C. for 3 days. On Day 3, eggs were cracked under sterile conditions and embryos were placed into 20×100 mm plastic plates and cultivated at 37° C. in an embryo incubator with a water reservoir on the bottom shelf. Air was continuously bubbled into the water reservoir using a small pump so that the humidity in the incubator was kept constant. […] Embryos were returned to the incubator after addition of test material. Control embryos received 10 μL of vehicle alone. […] The blood vessel density was semi-quantitatively measured using an angiogenesis scoring system, in that exponential numbers 1 to 32 were used to indicate number of blood vessels present at the treatment sites on the CAM. Number 32 represented the highest density and 0 represented no angiogenesis. The percent of inhibition at each dosing site was calculated using the score recorded for that site divided by the mean score obtained from the appropriate control samples for each individual experiment. The percent of inhibition for each dose of a given compound was calculated by pooling all results obtained for that dose.

[2] = Cleavage studies in rat blood to give the parent acid 6; type: in vitro ADME; details: rat blood (EDTA), 0.01 mg/mL, 37° C.; for cleavage to give the parent compound 6: up to 180 minutes
Description: The sample was diluted to a volume of 1 mL by addition of 0.1 M aqueous KH2PO4. […] An Oasis MAX cartridge (1 cc/30 mg) was conditioned with 1 mL MeOH and 1 mL water successively. The supernatant was transferred to the conditioned cartridge at a flow rate of 1-2 mL/min. […] The extracts were transferred to autosampler vials and immediately analysed by LC/MS. […] LCMS was performed on a Bruker Daltonics Esquire 3000+ mass spectrometer equipped with an electrospray source coupled to the HPLC. […] Injection volume: 0.05 mL. HPLC was performed on a Waters Symmetry C8 3.5 micron column, 50 mm×2.1 mm, running a mobile phase of: mobile phase A: 0.1% formic acid in water; mobile phase B: 0.1% Formic acid in acetonitrile; flow rate: 1 mL/minute. […] Fragmentation of this molecular species results in a spectrum with intense ions at m/z 271 and 412. The daughter ion at m/z 412 can be ideally selected for quantification.

endothelial cells = details: with respect to borrelidin; WO 01/09113; cited from earlier work
[3] = test system: Lewis lung adenocarcinoma; details: rats; intraperitoneal and per os administration at subtoxic doses; cited from earlier work
[4] = test system: mouse colon adenocarcinoma cells; details: subtoxic dose; cited from earlier work

Row | Compound | Mean % T/C at 1 μM [1] | Mean % T/C at 10 μM [1] | inhibition of cell growth at 1 μM (in words) [1] | further results
1 | 17-des(cyclopentane-2-carboxylic acid)-17-(cyclobutane-2-carboxylic acid)borrelidin (2-(2-hydroxyethyl)pyridine ester [Compound 8] | 40 % T/C | 6 % T/C | – | –
2 | 17-des(cyclopentane-2-carboxylic acid)-17-(cyclobutane-2-carboxylic acid)borrelidin (4-(2-hydroxyethyl))morpholine ester [Compound 7] | 36 % T/C | 8 % T/C | – | Mean percentage Inhibition of cancer cell lines at 1 uM [1]: 64%; Mean percentage inhibition of CAM vasculature at 25 ng/CAM (CAM vasculature): 54%; Ratio of inhibition of CAM vasculature at 25 ng/CAM to in vitro cancer cell inhibition at 1 uM (CAM vasculature): 0.84; Mean blood vessel density score (CAM vasculature): 7.8; anti-angiogenic therapeutic index (ratio of anti-angiogenesis to general cell inhibition), in words (CAM vasculature): improved; half-life for the cleavage to parent compound 6 [2]: ~12 min; cleavage to give the parent compound 6 [2]: rapidly cleaved
3 | C[C@@H]1C[C@H](C)C[C@H](C)[C@@H](O)CC(=O)O[C@@H](C2CC[C@H]2C(=O)O)C/C=C/C=C(/C#N)[C@H](O)[C@@H](C)C1 (stereo partly drawn) [Compound 6, 17-des(cyclopentane-2-carboxylic acid)-17-(cyclobutane-2-carboxylic acid)borrelidin] | 33 % T/C | 8 % T/C | – | inhibition at 1 µM ([1]; Homo sapiens, read-out: Mean percentage Inhibition of cancer cell lines at 1 uM): 67%; Mean percentage inhibition of CAM vasculature at 25 ng/CAM (CAM vasculature): 51%; Ratio of inhibition of CAM vasculature at 25 ng/CAM to in vitro cancer cell inhibition at 1 uM (CAM vasculature): 0.76; Mean blood vessel density score (CAM vasculature): 8.2
4 | CC1CC(C)CC(C)C(O)C(C#N)=CC=CCC(C2CCC2C(=O)NCCN2CCOCC2)OC(=O)CC(O)C(C)C1 (stereo not drawn) [Compound 9, 17-des(cyclopentane-2-carboxylic acid)-17-(cyclobutane-2-carboxylic acid)borrelidin (4-(2-aminoethyl))morpholine amide] | 101 % T/C | 43 % T/C | little or no inhibition of cell growth | Mean percentage Inhibition of cancer cell lines at 1 uM [1]: 0%; Mean percentage inhibition of CAM vasculature at 25 ng/CAM (CAM vasculature): 60%; Ratio of inhibition of CAM vasculature at 25 ng/CAM to in vitro cancer cell inhibition at 1 uM (CAM vasculature): >60; Mean blood vessel density score (CAM vasculature): 6.8; anti-angiogenic therapeutic index (ratio of anti-angiogenesis to general cell inhibition), in words (CAM vasculature): especially good; cleavage to give the parent compound 6 [2]: did not cleave
5 | CC1CC(C)CC(C)C(O)C(C#N)=CC=CCC(C2CCC2C(=O)NCc2ccncc2)OC(=O)CC(O)C(C)C1 (stereo not drawn) [Compound 10, 17-des(cyclopentane-2-carboxylic acid)-17-(cyclobutane-2-carboxylic acid)borrelidin (4-aminomethyl)pyridine amide] | 104 % T/C | 57 % T/C | little or no inhibition of cell growth | –
6 | CC1CC(C)CC(C)C(O)C(C#N)=CC=CCC(C2CCC2C(=O)NCc2cccnc2)OC(=O)CC(O)C(C)C1 (stereo not drawn) [Compound 11, 17-des(cyclopentane-2-carboxylic acid)-17-(cyclobutane-2-carboxylic acid)borrelidin (3-aminomethyl)pyridine amide] | 97 % T/C | 20 % T/C | little or no inhibition of cell growth | –
7 | CC1CC(C)CC(C)C(O)C(C#N)=CC=CCC(C2CCC2C(=O)NCc2ccccn2)OC(=O)CC(O)C(C)C1 (stereo not drawn) [Compound 12, 17-des(cyclopentane-2-carboxylic acid)-17-(cyclobutane-2-carboxylic acid)borrelidin (2-aminomethyl)pyridine amide] | 87 % T/C | 15 % T/C | little or no inhibition of cell growth | –
8 | CC1CC(C)CC(C)C(O)C(C#N)=CC=CCC(C2CCC2C(=O)NCCc2cccnc2)OC(=O)CC(O)C(C)C1 (stereo not drawn) [Compound 13, 17-des(cyclopentane-2-carboxylic acid)-17-(cyclobutane-2-carboxylic acid)borrelidin (3-(2-aminoethyl))pyridine amide] | 97 % T/C | 37 % T/C | little or no inhibition of cell growth | cleavage to give the parent compound 6 [2]: did not cleave
9 | CC1CC(C)CC(C)C(O)C(C#N)=CC=CCC(C2CCC2C(N)=O)OC(=O)CC(O)C(C)C1 (stereo not drawn) [Compound 14, 17-des(cyclopentane-2-carboxylic acid)-17-(cyclobutane-2-carboxylic acid)borrelidin amide] | 92 % T/C | 26 % T/C | little or no inhibition of cell growth | –
10 | CC1CC(C)CC(C)C(O)C(C#N)=CC=CCC(C2CCCC2C(=O)OCCc2ccccn2)OC(=O)CC(O)C(C)C1 (stereo not drawn) [borrelidin-(2-pyridyl)-ethyl ester] | – | – | – | selectivity index for capillary formation inhibitory activity versus cell proliferation (endothelial cells): 7.5 fold
11 | CC1CC(C)CC(C)C(O)CC(=O)OC(C2CCCC2C(=O)NCc2cccnc2)C(C#N)=CC=CCC(O)C(C)C1 (stereo not drawn) [borrelidin-(3-picolylamide) derivative, borrelidin-(3-picolylamide)] | – | – | – | increase of micrometastases [3]: inhibit very considerably; metastasis-forming ability of mouse colon adenocarcinoma cells transplanted into mouse spleen [4]: considerably decreased
12 | C[C@@H]1C[C@H](C)C[C@H](C)[C@@H](O)CC(=O)O[C@H]([C@@H]2CCC[C@H]2C(=O)NCCN2CCOCC2)C/C=C/C=C(/C#N)[C@H](O)[C@@H](C)C1 [borrelidin-morpholinoethyl amide] | – | – | – | selectivity index for capillary formation inhibitory activity versus cell proliferation (endothelial cells): 6 fold
13 | C[C@@H]1C[C@H](C)C[C@H](C)[C@@H](O)CC(=O)O[C@H]([C@@H]2CCC[C@H]2C(=O)OCCN2CCOCC2)C/C=C/C=C(/C#N)[C@H](O)[C@@H](C)C1 [borrelidin-morpholinoethyl ester] | – | – | – | selectivity index for capillary formation inhibitory activity versus cell proliferation (endothelial cells): 60 fold
14 | borrelidin-amide | – | – | – | selectivity index for capillary formation inhibitory activity versus cell proliferation (endothelial cells): 37 fold
